Test results: PubChem BioAssay (NCI)
Values joined by “and” are separate entries in the source; they are usually repeats but may differ in a detail not shown here. Identical values can stand only once.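 How tested: cells in 96-well plates exposed to compound for 48 hours at five concentrations. GI50: concentration for 50% inhibition of growth. TGI is the concentration that stops growth completely.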

What was measured:
Assay in all cases: NCI anticancer screen, dose series, 48 h
[1] = system: K-562 leukemia
[2] = system: A498 renal
[3] = system: NCI-H23 lung
[4] = system: LXFL 529 NSCLC
[5] = system: SNB-75 CNS
[6] = system: COLO 205 colon
[7] = system: CCRF-CEM leukemia
[8] = system: DMS 273 small cell lung
[9] = system: SR leukemia
[10] = system: BT-549 breast

| SMILES | TGI [1] | TGI [2] | TGI [3] | GI50 [4] | TGI [4] | TGI [5] | GI50 [6] | TGI [6] | TGI [7] | TGI [8] | GI50 [1] | GI50 [9] | GI50 [2] | GI50 [3] | GI50 [10] | TGI [10] | GI50 [5] | TGI [9] | GI50 [7] |
| --- | --- | --- | --- | --- | --- | --- | --- | --- | --- | --- | --- | --- | --- | --- | --- | --- | --- | --- | --- |
| Cc1cc(Cl)cc2c1NC(=O)C2(O)C(C(=O)c1ccccc1)c1ccccc1 (configuration not stated) | > 100 µM | 65.7 µM | > 100 µM | 56.2 µM and 24 µM | > 100 µM and 72.8 µM | 83.2 µM and 60.7 µM | > 100 µM and 15.2 µM | > 100 µM and 30 µM | 81.5 µM | > 100 µM | – | – | – | – | – | – | – | – | – |
| Cc1cnc(-c2ccc(-c3ccc(NC(=O)Nc4c(F)cc(F)cc4F)cc3F)c3c2C(=O)NC3)[nH]1 | 2.96 µM and 11.5 µM | 24.3 µM and 14.9 µM | 5.5 µM and 6.52 µM | – | – | 10.9 µM | < 0.01 µM | 13.2 µM and 27.3 µM | > 100 µM | – | 0.329 µM and 0.66 µM | 0.0294 µM and < 0.01 µM | 6.48 µM and 2.13 µM | 0.286 µM and 0.545 µM | 1.19 µM and 1.69 µM | 19.2 µM and 16.1 µM | 2.96 µM | – | – |
| Nc1cc(N)c2nc(NCCc3ccc(Cl)c(Cl)c3)cnc2c1 | 14.1 µM | 34.5 µM | 45.7 µM | – | – | 27.2 µM | 5.6 µM | 24.3 µM | 5.05 µM | – | 3.36 µM | 3.9 µM | 20.3 µM | 19.9 µM | 20.1 µM | 34.8 µM | 14.2 µM | 20.9 µM | 2.02 µM |
| CC(=O)Nc1cc2c3c(cccc3c1)-c1ccccc1-2 | > 100 µM | 28.6 µM | > 100 µM | – | – | > 100 µM | > 100 µM | > 100 µM | > 100 µM | – | > 100 µM | 28.6 µM | 11.6 µM | 38.5 µM | 64.6 µM | > 100 µM | > 100 µM | > 100 µM | 0.992 µM |
| COc1ccc(/C=C\c2cc(OC)c(OC)c(OC)c2)c(NS(=O)(=O)c2ccc(F)cc2)c1O | > 76 µM | 0.0966 µM | > 62.4 µM | – | – | > 100 µM | 1.93 µM | 7.94 µM | > 100 µM | – | 0.0353 µM | 0.041 µM | 0.0235 µM | 0.128 µM | 0.0619 µM | 16.8 µM | 0.0349 µM | > 68.1 µM | 0.0435 µM |
| COc1cc(CC(=O)O)c([N+](=O)[O-])cc1OC | > 100 µM | > 100 µM | > 100 µM | – | > 100 µM | > 100 µM | – | > 100 µM | > 100 µM | > 100 µM | – | – | – | – | – | – | – | – | – |
| Cn1c(=O)c(Oc2ccc(F)cc2F)cc2cnc(NCC(C)(C)O)nc21 | > 25 µM | > 25 µM | > 25 µM | – | – | > 25 µM | > 25 µM | > 25 µM | > 25 µM | – | > 25 µM | > 25 µM | > 25 µM | > 25 µM | > 25 µM | > 25 µM | > 25 µM | > 25 µM | > 25 µM |
| Cc1[nH]nc(C(=O)N/N=C/c2ccccc2Cl)c1N=NN(C)C | > 100 µM | > 100 µM | > 100 µM | – | – | > 100 µM | – | > 100 µM | > 100 µM | – | – | – | – | – | – | 12.8 µM | – | > 100 µM | – |
| Nc1c(C(=O)Nc2cccc(C(F)(F)F)c2)sc2nc3c(cc12)CCCCCC3 | 20 µM | 5.51 µM | 10.6 µM | – | – | 3.47 µM | 3.07 µM | 14 µM | > 100 µM | – | 3.65 µM | 3.77 µM | 1.39 µM | 2.39 µM | 2.54 µM | 9.59 µM | 1.73 µM | 19 µM | 5.73 µM |
| COC(=O)c1c2c(c(C)[n+]([O-])c1C)C(=O)C(NCc1ccc(O)cc1)=CC2=O | 7.39 µM | 2.92 µM | 3.5 µM | – | – | 3.06 µM | 0.579 µM | 2.19 µM | 4.35 µM | – | 1.63 µM | 1.83 µM | 1.31 µM | 1.43 µM | 1.43 µM | 2.91 µM | 1.67 µM | 6.51 µM | 1.6 µM |
| C[C@]12CCc3nn(-c4ccccc4)nc3C1CC[C@@H]1C2CC[C@]2(C)C(=O)CCC12 (some centres not stated) | > 100 µM | – | > 100 µM | – | > 100 µM | > 100 µM | – | > 100 µM | > 100 µM | > 100 µM | – | – | – | – | – | – | – | > 100 µM | – |
| CCOC(=O)C(=O)C(C#N)c1ccc(Cl)cc1 (configuration not stated) | > 100 µM | > 100 µM | > 100 µM | – | > 100 µM | > 100 µM | – | > 100 µM | – | > 100 µM | – | – | – | – | – | – | – | – | – |
| Cc1cc(C)c2c(c1)N(C)c1ncnc(-n3cnc4cc(C)ccc43)c1CC2C (configuration not stated) | > 100 µM | 6.21 µM | > 100 µM | – | – | 13.2 µM | 3.32 µM | 10.5 µM | 11.4 µM | – | 1.5 µM | 0.787 µM | 1.41 µM | 4.87 µM | 2.93 µM | 12 µM | 2.8 µM | 8.62 µM | 2.78 µM |
| O=C(/C=C/C=C/c1ccc2c(c1)OCO2)N/N=C\c1ccc(O)cc1O | > 100 µM | 7.15 µM | 10.6 µM | – | – | 9.41 µM | 2.31 µM | 13.8 µM | 17.9 µM | – | 2.83 µM | 0.571 µM | 2.07 µM | 2.11 µM | 2.25 µM | 7.49 µM | 1.89 µM | > 100 µM | 0.559 µM |
| C=CC(=O)N1CCC[C@@H](n2nc(-c3ccc(Oc4ccccc4)cc3)c3c(N)ncnc32)C1 | > 10 µM | > 5.51 µM | > 10 µM | – | – | > 10 µM | > 10 µM | > 10 µM | > 10 µM | – | > 10 µM | > 10 µM | 0.46 µM | > 10 µM | > 7.69 µM | > 10 µM | > 5.6 µM | > 10 µM | > 10 µM |
| Nc1n[nH]c2ccc([C@@H]3Nc4ccc5cn[nH]c5c4[C@H]4C5CCC(C5)[C@@H]34)cc12 (some centres not stated) | > 100 µM | 0.777 µM | 38.5 µM | – | – | 3.59 µM | 0.332 µM | 3.03 µM | > 100 µM | – | 0.252 µM | 0.361 µM | 0.181 µM | 0.453 µM | 0.755 µM | > 65.8 µM | 0.171 µM | > 100 µM | 0.343 µM |
| O=C(CC(=O)c1cccc([N+](=O)[O-])c1)C(=O)Nc1ccccc1 | > 100 µM | > 100 µM | > 100 µM | – | > 100 µM | > 100 µM | – | – | > 100 µM | > 100 µM | – | – | – | – | – | – | – | – | – |
